Experiments:
chickweed [1] = test: Test Example 5: herbicidal effect by foliage application, plastic box (Table 20, symbol P); assay type: in vivo, common chickweed (Stellaria media); conditions: foliage application, three weeks after application
Outline: (§1)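 Foliar spray test: emulsion formulation diluted in water to a set application rate, sprayed onto 14-day-old plants raised in diluvial soil at 25° C to 30° C under glass. Both herbicidal effect and crop effect rated visually three weeks later.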

persian speedwell [2] = test: Test Example 5: herbicidal effect by foliage application, plastic box (Table 20, symbol R); assay type: in vivo, Persian speedwell (Veronica persica); conditions: foliage application, three weeks after application
Outline: as §1

velvetleaf [3] = test: Test Example 5: herbicidal effect by foliage application, plastic box (Table 20, symbol M); assay type: in vivo, velvetleaf (Abutilon theophrasti); conditions: foliage application, three weeks after application
Outline: as §1

southern crabgrass [4] = test: Test Example 5: herbicidal effect by foliage application, plastic box (Table 20, symbol F); assay type: in vivo, southern crabgrass (Digitaria ciliaris); conditions: foliage application, three weeks after application
Outline: as §1

windgrass [5] = test: Test Example 5: herbicidal effect by foliage application, plastic box (Table 20, symbol L); assay type: in vivo, windgrass (Apera spica-venti); conditions: foliage application, three weeks after application
Outline: as §1

blackgrass [6] = test: Test Example 4: herbicidal effect by soil treatment (Table 19, symbol J); assay type: in vivo, blackgrass (Alopecurus myosuroides)
Outline: (§2)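 Step 1: sow seeds in sterilized diluvial soil, cover ~1.5 cm. Step 2: spray diluted emulsion onto soil surface at predetermined rate. Step 3: greenhouse, 25–30° C, three weeks. Step 4: grade effect on each plant by earlier criteria.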

blackgrass [7] = test: Test Example 5: herbicidal effect by foliage application, plastic box (Table 20, symbol J); assay type: in vivo, blackgrass (Alopecurus myosuroides); conditions: foliage application, three weeks after application
Outline: as §1

persian speedwell [8] = test: Test Example 4: herbicidal effect by soil treatment (Table 19, symbol R); assay type: in vivo, Persian speedwell (Veronica persica)
Outline: as §2

velvetleaf [9] = test: Test Example 4: herbicidal effect by soil treatment (Table 19, symbol M); assay type: in vivo, velvetleaf (Abutilon theophrasti)
Outline: as §2

windgrass [10] = test: Test Example 4: herbicidal effect by soil treatment (Table 19, symbol L); assay type: in vivo, windgrass (Apera spica-venti)
Outline: as §2

green foxtail [11] = test: Test Example 5: herbicidal effect by foliage application, plastic box (Table 20, symbol G); assay type: in vivo, green foxtail (Setaria viridis); conditions: foliage application, three weeks after application
Outline: as §1

lambsquarters [12] = test: Test Example 4: herbicidal effect by soil treatment (Table 19, symbol O); assay type: in vivo, lambsquarters (Chenopodium album)
Outline: as §2

southern crabgrass [13] = test: Test Example 4: herbicidal effect by soil treatment (Table 19, symbol F); assay type: in vivo, southern crabgrass (Digitaria ciliaris)
Outline: as §2

wild oat [14] = test: Test Example 5: herbicidal effect by foliage application, plastic box (Table 20, symbol I); assay type: in vivo, wild oat (Avena fatua); conditions: foliage application, three weeks after application
Outline: as §1

lambsquarters [15] = test: Test Example 5: herbicidal effect by foliage application, plastic box (Table 20, symbol O); assay type: in vivo, lambsquarters (Chenopodium album); conditions: foliage application, three weeks after application
Outline: as §1

Italian ryegrass [16] = test: Test Example 4: herbicidal effect by soil treatment (Table 19, symbol K); assay type: in vivo, Italian ryegrass (Lolium multiflorum)
Outline: as §2

redroot pigweed [17] = test: Test Example 5: herbicidal effect by foliage application, plastic box (Table 20, symbol N); assay type: in vivo, redroot pigweed (Amaranthus retroflexus); conditions: foliage application, three weeks after application
Outline: as §1

wild oat [18] = test: Test Example 4: herbicidal effect by soil treatment (Table 19, symbol I); assay type: in vivo, wild oat (Avena fatua)
Outline: as §2

chickweed [19] = test: Test Example 4: herbicidal effect by soil treatment (Table 19, symbol P); assay type: in vivo, common chickweed (Stellaria media)
Outline: as §2

Italian ryegrass [20] = test: Test Example 5: herbicidal effect by foliage application, plastic box (Table 20, symbol K); assay type: in vivo, Italian ryegrass (Lolium multiflorum); conditions: foliage application, three weeks after application
Outline: as §1

green foxtail [21] = test: Test Example 4: herbicidal effect by soil treatment (Table 19, symbol G); assay type: in vivo, green foxtail (Setaria viridis)
Outline: as §2

barnyard grass [22] = test: Test Example 5: herbicidal effect by foliage application, plastic box (Table 20, symbol H); assay type: in vivo, barnyard grass (Echinochloa crus-galli); conditions: foliage application, three weeks after application
Outline: as §1

barnyard grass [23] = test: Test Example 4: herbicidal effect by soil treatment (Table 19, symbol H); assay type: in vivo, barnyard grass (Echinochloa crus-galli)
Outline: as §2

redroot pigweed [24] = test: Test Example 4: herbicidal effect by soil treatment (Table 19, symbol N); assay type: in vivo, redroot pigweed (Amaranthus retroflexus)
Outline: as §2

Cc1nn(C)c(=O)c(-c2c(-c3ccc(OS(=O)(=O)C(F)(F)F)cc3)sc3ccccc23)c1O [1-147]
P: chickweed, herbicidal effect (chickweed [1]; AAH 320 g/ha): 5 (Herbicidal rate of 90% or more (almost completely withered)) | R: persian speedwell, herbicidal effect (persian speedwell [2]; AAH 320 g/ha): 5 (Herbicidal rate of 90% or more (almost completely withered)) | M: velvetleaf, herbicidal effect (velvetleaf [3]; AAH 320 g/ha): 1 (Herbicidal rate of 5% or more and less than 20%) | F: southern crabgrass, herbicidal effect (southern crabgrass [4]; AAH 320 g/ha): 0 (Herbicidal rate of 5% or less (almost no effect)) | L: windgrass, herbicidal effect (windgrass [5]; AAH 320 g/ha): 0 (Herbicidal rate of 5% or less (almost no effect)) | J: blackgrass, herbicidal effect rating (blackgrass [6]; AAH 320 g/ha): 0 (Herbicidal rate of 5% or less (almost no effect)) | J: blackgrass, herbicidal effect (blackgrass [7]; AAH 320 g/ha): 0 (Herbicidal rate of 5% or less (almost no effect)) | R: persian speedwell, herbicidal effect rating (persian speedwell [8]; AAH 320 g/ha): 5 (Herbicidal rate of 90% or more (almost completely withered)) | M: velvetleaf, herbicidal effect rating (velvetleaf [9]; AAH 320 g/ha): 0 (Herbicidal rate of 5% or less (almost no effect)) | L: windgrass, herbicidal effect rating (windgrass [10]; AAH 320 g/ha): 0 (Herbicidal rate of 5% or less (almost no effect)) | G: green foxtail, herbicidal effect (green foxtail [11]; AAH 320 g/ha): 0 (Herbicidal rate of 5% or less (almost no effect)) | O: lambsquarters, herbicidal effect rating (lambsquarters [12]; AAH 320 g/ha): 3 (Herbicidal rate of 40% or more and less than 70%) | F: southern crabgrass, herbicidal effect rating (southern crabgrass [13]; AAH 320 g/ha): 0 (Herbicidal rate of 5% or less (almost no effect)) | I: wild oat, herbicidal effect (wild oat [14]; AAH 320 g/ha): 0 (Herbicidal rate of 5% or less (almost no effect)) | O: lambsquarters, herbicidal effect (lambsquarters [15]; AAH 320 g/ha): 2 (Herbicidal rate of 20% or more and less than 40%) | K: Italian ryegrass, herbicidal effect rating (Italian ryegrass [16]; AAH 320 g/ha): 0 (Herbicidal rate of 5% or less (almost no effect)) | N: redroot pigweed, herbicidal effect (redroot pigweed [17]; AAH 320 g/ha): 0 (Herbicidal rate of 5% or less (almost no effect)) | I: wild oat, herbicidal effect rating (wild oat [18]; AAH 320 g/ha): 0 (Herbicidal rate of 5% or less (almost no effect)) | P: chickweed, herbicidal effect rating (chickweed [19]; AAH 320 g/ha): 5 (Herbicidal rate of 90% or more (almost completely withered)) | K: Italian ryegrass, herbicidal effect (Italian ryegrass [20]; AAH 320 g/ha): 0 (Herbicidal rate of 5% or less (almost no effect)) | G: green foxtail, herbicidal effect rating (green foxtail [21]; AAH 320 g/ha): 0 (Herbicidal rate of 5% or less (almost no effect)) | H: barnyard grass, herbicidal effect (barnyard grass [22]; AAH 320 g/ha): 0 (Herbicidal rate of 5% or less (almost no effect)) | H: barnyard grass, herbicidal effect rating (barnyard grass [23]; AAH 320 g/ha): 0 (Herbicidal rate of 5% or less (almost no effect)) | N: redroot pigweed, herbicidal effect rating (redroot pigweed [24]; AAH 320 g/ha): 2 (Herbicidal rate of 20% or more and less than 40%)

CCCC(=O)Oc1c(OC)nn(C)c(=O)c1-c1c(-c2ccc(OC)cc2OC)sc2ccccc12 [1-181]
P: chickweed, herbicidal effect (chickweed [1]; AAH 320 g/ha): 4 (Herbicidal rate of 70% or more and less than 90%) | R: persian speedwell, herbicidal effect (persian speedwell [2]; AAH 320 g/ha): 1 (Herbicidal rate of 5% or more and less than 20%) | M: velvetleaf, herbicidal effect (velvetleaf [3]; AAH 320 g/ha): 0 (Herbicidal rate of 5% or less (almost no effect)) | F: southern crabgrass, herbicidal effect (southern crabgrass [4]; AAH 320 g/ha): 0 (Herbicidal rate of 5% or less (almost no effect)) | L: windgrass, herbicidal effect (windgrass [5]; AAH 320 g/ha): 0 (Herbicidal rate of 5% or less (almost no effect)) | J: blackgrass, herbicidal effect rating (blackgrass [6]; AAH 320 g/ha): 0 (Herbicidal rate of 5% or less (almost no effect)) | J: blackgrass, herbicidal effect (blackgrass [7]; AAH 320 g/ha): 0 (Herbicidal rate of 5% or less (almost no effect)) | R: persian speedwell, herbicidal effect rating (persian speedwell [8]; AAH 320 g/ha): 1 (Herbicidal rate of 5% or more and less than 20%) | M: velvetleaf, herbicidal effect rating (velvetleaf [9]; AAH 320 g/ha): 0 (Herbicidal rate of 5% or less (almost no effect)) | L: windgrass, herbicidal effect rating (windgrass [10]; AAH 320 g/ha): 0 (Herbicidal rate of 5% or less (almost no effect)) | G: green foxtail, herbicidal effect (green foxtail [11]; AAH 320 g/ha): 0 (Herbicidal rate of 5% or less (almost no effect)) | O: lambsquarters, herbicidal effect rating (lambsquarters [12]; AAH 320 g/ha): 0 (Herbicidal rate of 5% or less (almost no effect)) | F: southern crabgrass, herbicidal effect rating (southern crabgrass [13]; AAH 320 g/ha): 0 (Herbicidal rate of 5% or less (almost no effect)) | I: wild oat, herbicidal effect (wild oat [14]; AAH 320 g/ha): 0 (Herbicidal rate of 5% or less (almost no effect)) | O: lambsquarters, herbicidal effect (lambsquarters [15]; AAH 320 g/ha): 1 (Herbicidal rate of 5% or more and less than 20%) | K: Italian ryegrass, herbicidal effect rating (Italian ryegrass [16]; AAH 320 g/ha): 0 (Herbicidal rate of 5% or less (almost no effect)) | N: redroot pigweed, herbicidal effect (redroot pigweed [17]; AAH 320 g/ha): 0 (Herbicidal rate of 5% or less (almost no effect)) | I: wild oat, herbicidal effect rating (wild oat [18]; AAH 320 g/ha): 0 (Herbicidal rate of 5% or less (almost no effect)) | P: chickweed, herbicidal effect rating (chickweed [19]; AAH 320 g/ha): 1 (Herbicidal rate of 5% or more and less than 20%) | K: Italian ryegrass, herbicidal effect (Italian ryegrass [20]; AAH 320 g/ha): 0 (Herbicidal rate of 5% or less (almost no effect)) | G: green foxtail, herbicidal effect rating (green foxtail [21]; AAH 320 g/ha): 0 (Herbicidal rate of 5% or less (almost no effect)) | H: barnyard grass, herbicidal effect (barnyard grass [22]; AAH 320 g/ha): 0 (Herbicidal rate of 5% or less (almost no effect)) | H: barnyard grass, herbicidal effect rating (barnyard grass [23]; AAH 320 g/ha): 0 (Herbicidal rate of 5% or less (almost no effect)) | N: redroot pigweed, herbicidal effect rating (redroot pigweed [24]; AAH 320 g/ha): 0 (Herbicidal rate of 5% or less (almost no effect))

COc1nn(C)c(=O)c(-c2c(-c3cc(F)c(F)c(F)c3)sc3ccccc23)c1O [1-186]
P: chickweed, herbicidal effect (chickweed [1]; AAH 283 g/ha): 5 (Herbicidal rate of 90% or more (almost completely withered)) | R: persian speedwell, herbicidal effect (persian speedwell [2]; AAH 283 g/ha): 5 (Herbicidal rate of 90% or more (almost completely withered)) | M: velvetleaf, herbicidal effect (velvetleaf [3]; AAH 283 g/ha): 3 (Herbicidal rate of 40% or more and less than 70%) | F: southern crabgrass, herbicidal effect (southern crabgrass [4]; AAH 283 g/ha): 0 (Herbicidal rate of 5% or less (almost no effect)) | L: windgrass, herbicidal effect (windgrass [5]; AAH 283 g/ha): 0 (Herbicidal rate of 5% or less (almost no effect)) | J: blackgrass, herbicidal effect rating (blackgrass [6]; AAH 283 g/ha): 0 (Herbicidal rate of 5% or less (almost no effect)) | J: blackgrass, herbicidal effect (blackgrass [7]; AAH 283 g/ha): 0 (Herbicidal rate of 5% or less (almost no effect)) | R: persian speedwell, herbicidal effect rating (persian speedwell [8]; AAH 283 g/ha): 4 (Herbicidal rate of 70% or more and less than 90%) | M: velvetleaf, herbicidal effect rating (velvetleaf [9]; AAH 283 g/ha): 0 (Herbicidal rate of 5% or less (almost no effect)) | L: windgrass, herbicidal effect rating (windgrass [10]; AAH 283 g/ha): 0 (Herbicidal rate of 5% or less (almost no effect)) | G: green foxtail, herbicidal effect (green foxtail [11]; AAH 283 g/ha): 0 (Herbicidal rate of 5% or less (almost no effect)) | O: lambsquarters, herbicidal effect rating (lambsquarters [12]; AAH 283 g/ha): 0 (Herbicidal rate of 5% or less (almost no effect)) | F: southern crabgrass, herbicidal effect rating (southern crabgrass [13]; AAH 283 g/ha): 0 (Herbicidal rate of 5% or less (almost no effect)) | I: wild oat, herbicidal effect (wild oat [14]; AAH 283 g/ha): 0 (Herbicidal rate of 5% or less (almost no effect)) | O: lambsquarters, herbicidal effect (lambsquarters [15]; AAH 283 g/ha): 2 (Herbicidal rate of 20% or more and less than 40%) | K: Italian ryegrass, herbicidal effect rating (Italian ryegrass [16]; AAH 283 g/ha): 0 (Herbicidal rate of 5% or less (almost no effect)) | N: redroot pigweed, herbicidal effect (redroot pigweed [17]; AAH 283 g/ha): 4 (Herbicidal rate of 70% or more and less than 90%) | I: wild oat, herbicidal effect rating (wild oat [18]; AAH 283 g/ha): 0 (Herbicidal rate of 5% or less (almost no effect)) | P: chickweed, herbicidal effect rating (chickweed [19]; AAH 283 g/ha): 5 (Herbicidal rate of 90% or more (almost completely withered)) | K: Italian ryegrass, herbicidal effect (Italian ryegrass [20]; AAH 283 g/ha): 0 (Herbicidal rate of 5% or less (almost no effect)) | G: green foxtail, herbicidal effect rating (green foxtail [21]; AAH 283 g/ha): 0 (Herbicidal rate of 5% or less (almost no effect)) | H: barnyard grass, herbicidal effect (barnyard grass [22]; AAH 283 g/ha): 0 (Herbicidal rate of 5% or less (almost no effect)) | H: barnyard grass, herbicidal effect rating (barnyard grass [23]; AAH 283 g/ha): 0 (Herbicidal rate of 5% or less (almost no effect)) | N: redroot pigweed, herbicidal effect rating (redroot pigweed [24]; AAH 283 g/ha): 2 (Herbicidal rate of 20% or more and less than 40%)
